Source: patent US20230119082A1, “(AZIRIDINYL HYDROXY)-FUNCTIONAL ORGANIC COMPOUNDS” (COVESTRO (NETHERLANDS) B.V., priority 2020, published 2023)

What was measured:
Bscl2-GFP = test: in vitro; conditions: mouse; for fold induction at 3 h / fold induction at 24 h: −fold induction Bscl 2
Procedure: (§1) In the context of the specification, the genotoxicity is measured according to the ToxTracker® assay (Toxys, Leiden, the Netherlands) as described in the Examples.
(§2) The genotoxicity was determined according to the ToxTracker® assay (Toxys, Leiden, the Netherlands) as described below.
(§3) This methodology uses a two-step approach.
(§4) Positive reference treatment with cisplatin (DNA damage) was included in all experiments. Metabolic was evaluated by the addition of S9 liver extract. […] Only GFP expression in single intact cells is determined. Mean GFP fluorescence and cell concentrations in each well are measured, which is used for cytotoxicity assessment. Data were analyzed using ToxPlot software (Toxys, Leiden, the Netherlands).

Rtkn-GFP = test: in vitro; conditions: mouse
Procedure: as §1, §2, §3, §4

| SMILES | −fold induction Bscl 2 (Bscl2-GFP; 3 h) | fold induction at 3 h (Bscl2-GFP) | fold induction at 24 h (Bscl2-GFP) | fold induction at 3 h (Rtkn-GFP) | fold induction at 24 h (Rtkn-GFP) |
| --- | --- | --- | --- | --- | --- |
| CC1CN1CC(O)COC(=O)NCCCCCCn1c(=O)n(CCCCCCNC(=O)OCC(O)CN2CC2C)c(=O)n(CCCCCCNC(=O)OCC(O)CN2CC2C)c1=O (stereo not drawn) [Example 3] | 1.5 fold | 1.2 | 1.1 | 1.1 | 1.2 |
| CC1CN1CC(O)COc1ccc(C(C)(C)c2ccc(OCC(O)CN3CC3C)cc2)cc1 (stereo not drawn) [Example 4C] | – | 1.1 | 1.1 | – | – |
| CC1CN1CC(O)CN(Cc1cccc(CN(CC(O)CN2CC2C)CC(O)CN2CC2C)c1)CC(O)CN1CC1C (stereo not drawn) [Example 2C] | – | 1.3 | 1.3 | – | – |
| CC1CN1CC(O)COc1ccc(N(CC(O)CN2CC2C)CC(O)CN2CC2C)cc1 (stereo not drawn) [Example 3C] | – | 1.2 | 1.1 | – | 1.7 |
